Legend:
HMEC-1 cells [1] = assay: E-cadherin, VE-cadherin, Vimentin and histone marks in HMEC-1 cells (qPCR, Western blot); format: cell-based, human; settings: HMEC-1, 10 μM, by 12 and 24 hours after treatment
HMEC-1 cells [2] = assay: WST-1 metabolism (proliferation) assay, HMEC-1 cells; format: cell-based, human; settings: WST-1, 10 μM, 24 h and 48 h
Method: Proliferation, migration, and tubular formation are essential characteristics of endothelial cells for the generation of new blood vessels. […] The lack of effect on cell proliferation is consistent with the lack of effect of compounds of similar class on the proliferation of SW620 and H520 cells (Stoops, S. L., et al. (2011) ACS Chemical Biology 6, 452-465). A scratch wound healing assay was performed on cultured HMEC-1 cells. Confluent monolayers of HMEC-1 cells were disrupted mechanically by scraping them with a sterile pipette tip. Within the observation period of 24 hours, Compound 13 treatment antagonized HMEC-1 monolayer wound healing (FIG. 12).
Referring to FIG. 11, HMEC-1 cells were treated with DMSO or 10 μM Compound 13 (259Y) using 96 wells plate, WST-1 was added (10 μL per well, incubate 37° C. for one hour, read at 450 nm reference 562 nm) at 24 h and 48 h. The blank control was a well with media but NO CELLS+wst-1. Each data point is a biological replicate that is the average of three technical replicates minus the average of three blank wells.

[3] = tested on: E-cadherin expression in SW620inv colon cancer cells; assay: Quantitative in-cell Western (ICW), E-cadherin restoration in SW620inv cells; format: cell-based; settings: 24 hours, 3 biological replicates
Method: SW620inv cells were used for ICW analysis as described (Stoops, S. L., et al. (2011) ACS Chemical Biology 6, 452-465).
SW620 cells (ATCC p92) were grown in RPMI+10% FBS+P/S to sub-confluence. The cells were washed with PBS, trypsinized, and re-suspended in serum-free RPMI at a concentration of one million cells/mL. The cells were then added to the upper chamber of 24 mm transwell (Costar#3428) that had been coated with 400 μL of 2.5 mg/mL matrigel (BD Biosciences). One milliliter of 10% FBS+P/S was added to the lower chamber. The cells were incubated at 37° C. for 72 hours in order to allow the cells to invade. Four biological replicate transwells were prepared for invasion. […] These invasive cells were then analyzed by western blot, matrigel invasion assay, and immunofluorescence for E-cadherin levels with and without TSA treatments. […]
Compounds of the present invention restore E-cadherin protein to the surface of selected aggressive colon and lung cancer cells. […] The kinetics of altered E-cadherin expression in SW620inv cells was determined by quantitative Western blot, using the Odyssey imaging system. […]
Referring to FIG. 2B and FIG. 2C, concentration dependent changes in E-cadherin expression following 24 hours of Compound 13 (259Y) treatment as determined by quantitative in cell Western (ICW) are shown.

[4] = tested on: E-cadherin protein in SW620inv cells; assay: Quantitative Western blot of E-cadherin protein, SW620inv time course; format: cell-based; settings: maintained level, 12, 18 and 24 hour time-points
[5] = Intrinsic clearance in vitro, mouse; format: in vitro ADME
Method: The potency and efficacy of Compound 13 was evaluated in vivo. For these studies, the pharmacokinetics of Compound 13 were first evaluated in vitro and in vivo (FIG. 14).

[6] = tested on: E-cadherin mRNA in H520 cells; assay: qPCR of E-cadherin specific mRNA, H520 cells; format: cell-based; settings: H520, 10 μM, 6 hours post-treatment, relative to DMSO
[7] = tested on: E-cadherin mRNA in SW620inv cells; assay: qPCR of E-cadherin specific mRNA, SW620inv cells; format: cell-based; settings: 10 μM, 6 hours post-treatment, relative to DMSO
HEp3 cells = assay: E-cadherin mRNA, protein and histone marks in HEp3 cells; format: cell-based, Human; settings: by 6 hours after treatment, compared with Compound 124 treatment
Method: To determine if Compound 13 restores E-cadherin in HEp3 cells, the effect of Compound 13 treatment on E-cadherin mRNA expression was tested. Compound 13 induced an 8-fold increase in E-cadherin mRNA by 6 hours after treatment in the […] compared with Compound 124 treatment (FIG. 15C). Not only E-cadherin specific mRNA, but also E-cadherin protein, was induced by Compound 13 treatment (FIG. 15D).
Avian embryos were treated with Compound 124 (266Y) or Compound 13 (259Y) 24 hours after intravenous injection of GFP-expressing HEp3 cells. The formation of metastatic colonies was monitored visually by a fluorescent stereoscope at 50× magnification. Representative images are shown, scale bar=500 μm (15A). Colony diameter was quantified at 6 days post injection. The data represent a total of 30 embryos from two independent experiments: 12 treated with Compound 124 (266Y) and 18 treated with Compound 13 (259Y). […] Each data point on the scatterplot represents the geometric mean diameter of 6-10 colonies analyzed per embryo (15B). Relative E-cadherin mRNA expression in HEp3 cells following 6 hours treatment with either Compound 124 (266Y) or Compound 13 (259Y) is shown (15C). Western blot showing E-cadherin protein re-expression in HEp3 cells following treatment with DMSO, Compound 124 (266Y), or Compound 13 (259Y) for 24 hours is shown (15D). […]

EC50 [3]: 2.22 µM
intrinsic clearance [5]: high
Compound: O=C(NCCCNC(=O)c1cccnc1O)c1cc(-c2ccccc2)on1 [Compound 13, N-(3-(2-hydroxynicotinamido)propyl)-5-phenylisoxazole-3-carboxamide]
induced expression of E-cadherin mRNA species (HMEC-1 cells [1]): > 5 ×
HMEC-1 cell proliferation (HMEC-1 cells [2]): no significant effect
E-cadherin protein levels relative to control vehicle treated cells [4]: > 10 ×
increase of E-cadherin specific mRNA [6]: 20 fold
increase of E-cadherin specific mRNA [7]: 27 fold
increase in E-cadherin mRNA (HEp3 cells): 8 fold

Reference: patent US9783510B2, “Small molecule mediated transcriptional induction of E-cadherin” (Vanderbilt University, priority 2014, dated 2017)
